Measurements as given in ChEMBL document CHEMBL1126402, “The design and biological evaluation of a series of 3-hydroxy-3-methylglutaryl coenzyme a (HMG-CoA) reductase inhibitors related to dihydromevinolin” (Bioorg Med Chem Lett, 1992).
The source made the active and inactive calls. The calls are words filed in the database; no cut-off is given here.

How the values were obtained:
[1] = biological target: T1, 3-hydroxy-3-methylglutaryl-coenzyme A reductase (Rattus norvegicus, UniProt P51639); test: Inhibition of microsomal rat liver HMG-CoA reductase
T1 sequence (P51639 whole entry): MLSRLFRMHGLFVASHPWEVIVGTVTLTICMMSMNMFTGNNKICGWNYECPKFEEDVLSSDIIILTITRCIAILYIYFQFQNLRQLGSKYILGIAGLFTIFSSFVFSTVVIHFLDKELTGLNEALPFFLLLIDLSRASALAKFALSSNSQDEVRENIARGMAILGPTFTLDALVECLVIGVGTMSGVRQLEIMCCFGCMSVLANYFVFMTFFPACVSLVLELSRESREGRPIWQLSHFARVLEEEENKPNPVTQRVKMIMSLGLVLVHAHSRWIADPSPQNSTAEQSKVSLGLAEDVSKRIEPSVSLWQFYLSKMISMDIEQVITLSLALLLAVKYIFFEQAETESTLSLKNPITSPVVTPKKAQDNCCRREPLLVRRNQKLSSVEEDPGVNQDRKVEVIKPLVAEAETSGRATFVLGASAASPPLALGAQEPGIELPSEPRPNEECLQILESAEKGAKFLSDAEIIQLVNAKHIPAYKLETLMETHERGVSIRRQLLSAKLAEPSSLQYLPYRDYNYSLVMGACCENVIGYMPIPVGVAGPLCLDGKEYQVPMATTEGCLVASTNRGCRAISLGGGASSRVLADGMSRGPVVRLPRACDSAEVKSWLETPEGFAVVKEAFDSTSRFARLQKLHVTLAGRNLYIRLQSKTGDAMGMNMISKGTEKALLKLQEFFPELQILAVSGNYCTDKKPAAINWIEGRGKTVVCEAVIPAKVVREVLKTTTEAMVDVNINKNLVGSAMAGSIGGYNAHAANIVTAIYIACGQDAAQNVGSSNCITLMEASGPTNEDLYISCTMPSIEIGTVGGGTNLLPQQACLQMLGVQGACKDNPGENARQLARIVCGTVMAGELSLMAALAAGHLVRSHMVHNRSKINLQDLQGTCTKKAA

[2] = Selectivity in vivo against rat assay; NS - no significant difference between organs; type: functional, organism-based
[3] = Selectivity in vivo against rat assay; A - greater inhibition in liver than in spleen, testes, kidney; type: functional, organism-based

Structure (SMILES)	IC50 [1]	Selectivity [2]	Selectivity [3]
CCC(C)C(=O)O[C@H]1C[C@@H](C)C[C@@H]2C=CC[C@H](CC[C@@H]3C[C@@H](O)CC(=O)O3)[C@@H]12 (stereo partly specified)	1.5 µM	–	–
CCC(C)C(=O)O[C@H]1C[C@@H](C)C[C@@H]2C=C[C@H](C)[C@H](CCC(=O)C[C@@H](O)CC(=O)OC)[C@@H]12 (stereo partly specified)	0.08 µM	–	–
CC/C=C/[C@@H]1C[C@H](OC(=O)C(C)(C)CC)[C@@H]2[C@@H](CC[C@@H]3C[C@@H](O)CC(=O)O3)[C@@H](C)C=C[C@H]2C1	0.015 µM	–	–
CCC/C(C)=C/[C@@H]1C[C@H](OC(=O)[C@@H](C)CC)[C@@H]2[C@@H](CC[C@@H]3C[C@@H](O)CC(=O)O3)[C@@H](C)C=C[C@H]2C1	0.02 µM	inactive	–
CCC/C(C)=C/[C@@H]1C[C@H](OC(=O)C(C)(C)CC)[C@@H]2[C@@H](CC[C@@H]3C[C@@H](O)CC(=O)O3)[C@@H](C)C=C[C@H]2C1	0.008 µM	inactive	–
CC[C@H](C)C(=O)O[C@H]1C[C@@H](C)C=C2C=C[C@H](C)[C@H](CC[C@@H]3C[C@@H](O)CC(=O)O3)[C@H]21 [LOVASTATIN]	0.011 µM	–	A
C/C=C\[C@@H]1C[C@H](OC(C)=O)[C@@H]2[C@@H](CC[C@@H]3C[C@@H](O)CC(=O)O3)[C@@H](C)C=C[C@H]2C1	1.5 µM	–	–
C/C=C/[C@@H]1C[C@H](OC(=O)C(C)(C)CC)[C@@H]2[C@@H](/C=C/[C@@H]3C[C@@H](O)CC(=O)O3)[C@@H](C)C=C[C@H]2C1	0.1 µM	–	–
